# In patent publication US20120172397A1, “HEXAHYDROCYCLOPENTA[f]INDAZOLE 5-YL ETHANOLS AND DERIVATIVES THEREOF AS SELECTIVE GLUCOCORTICOID RECEPTOR MODULATORS” (MERCK SHARP & DOHME CORP., priority 2009, published 2012):
# Target: T1, glucocorticoid receptor (GR) (Homo sapiens, UniProt P04150)
# T1 construct: Preparation of HeLa Cell Lysate; endogenous in cells; host or cells: HeLa (ATCC) cell lysate supernatant
# T1 sequence (P04150 1-777): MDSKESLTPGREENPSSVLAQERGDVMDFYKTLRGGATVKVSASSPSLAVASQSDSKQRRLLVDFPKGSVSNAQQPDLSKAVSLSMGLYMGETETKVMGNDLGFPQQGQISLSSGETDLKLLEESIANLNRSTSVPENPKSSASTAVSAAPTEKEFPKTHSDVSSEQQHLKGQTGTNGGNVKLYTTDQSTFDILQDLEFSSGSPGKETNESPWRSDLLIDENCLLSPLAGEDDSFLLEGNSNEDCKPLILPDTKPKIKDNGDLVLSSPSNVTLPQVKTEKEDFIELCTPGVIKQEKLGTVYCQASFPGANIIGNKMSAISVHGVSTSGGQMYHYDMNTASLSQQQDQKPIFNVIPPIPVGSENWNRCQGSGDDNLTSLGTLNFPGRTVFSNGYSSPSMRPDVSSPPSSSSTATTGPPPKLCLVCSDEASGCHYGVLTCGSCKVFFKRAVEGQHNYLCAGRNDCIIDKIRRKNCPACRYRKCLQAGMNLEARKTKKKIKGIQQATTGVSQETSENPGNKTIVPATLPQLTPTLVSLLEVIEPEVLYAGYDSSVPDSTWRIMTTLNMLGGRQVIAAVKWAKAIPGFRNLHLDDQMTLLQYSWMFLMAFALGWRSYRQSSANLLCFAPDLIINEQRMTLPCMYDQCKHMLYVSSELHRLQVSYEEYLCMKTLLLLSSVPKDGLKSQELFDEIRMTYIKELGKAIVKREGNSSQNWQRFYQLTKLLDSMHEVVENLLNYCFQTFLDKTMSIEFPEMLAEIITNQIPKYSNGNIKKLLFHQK
# Test: GR Ligand Binding Assay (BIND), 3H-dexamethasone displacement in HeLa cell lysate
# Details: 3H-DEX trace, 4° C. overnight
# Procedure: Binding Buffer: TEGM (10 mM Tris-HCl, 1 mM EDTA, 10% glycerol, 1 rnM beta-mecaptoethanol, 10 mM Sodium Molybdate, pH 7.2)
# 50% HAP Slurry: Calbiochem Hydroxylapatite, Fast Flow, in 10 mM Iris, pH 8.0 and 1 mM EDTA.
# Wash Buffer: 40 mM Tris, pH7.5, 100 mM KCl, 1 mM EDTA and 1 mM EGTA. 95% EtOH
# Dexmethasone-methyl-^3H, (DEX*); (Amersham cat# TRK645)
# Dexamethasone(DEX) (Sigma, cat# D1756):
# Cells (Hall R. E., et al., European Journal of Cancer, 30A: 484-490 (1994)) HeLa (ATCC) cultured in RPMI 1640 (Gibco 11835-055) containing 20 mM Hepes, 4 mM L-glu, 10 μg/ml of human insulin (Sigma, I-0259), 10% FBS and 20 μg/ml of Gentamicin (Gibco#15710-072) are rinsed twice in PBS. Phenol red-free Trypsin-EDTA is diluted in the same PBS 1:10. The cell layers are rinsed with 1× Trypsin, extra Trypsin is poured out, and the cell layers are incubated at 37° C. for ˜2 min. The flask is tapped and checked for signs of cell detachment. Once the cells begin to slide off the flask, the complete media is added. The cells are counted at this point, then diluted to the appropriate concentration and split into flasks or dishes for further culturing (Usually 1:3 to 1:6 dilution).
# When the cells are 70 to 85% confluent, they are detached as described above, and collected by centrifuging at 1000 g for 10 minutes at 4° C. The cell pellet is washed twice with TEGM (10 mM Tris-HCl, 1 mM EDTA, 10% glycerol, 1 mM beta-mercaptoethanol, 10 mM Sodium Molybdate, pH 7.2). After the final wash, the cells are resuspended in TEGM at a concentration of 10^7 cells/mL. The cell suspension is snap frozen in liquid nitrogen or ethanol/dry ice bath and transferred to −80° C. freezer on dry ice. Before setting up the binding assay, the frozen samples are left on ice-water to just thaw (˜1 hr). Then the samples are centrifuged at 12,500 g to 20,000 g for 30 min at 4° C. The supernatant is used to set-up assay right away. If using 50 μL of supernatant, the test compound can be prepared in 50 μL of the TEGM buffer.
# 1× TEGM buffer is prepared, and the isotope-containing assay mixture is prepared in the following order: EtOH (2% final concentration in reaction), ^3H-DEX (Amersham Biosciences) and 1× TEGM. [e.g. For 100 samples, 200 μL (100×2) of EtOH+4.25 μL of 1:10 ^3H-Dex stock+2300 μL (100×23) 1× TEGM]. The compound is serially diluted, e.g., if starting final conc. is 1 μM, and the compound is in 25 μL of solution, for duplicate samples, 75 μL of 4×1 μM solution is made and 3 μL of 100 μM is added to 72 μL of buffer, and 1:5 serial dilution.
# 25 μL of ^3H-DEX (6 nM) trace and 25 μL compound solution are first mixed together, followed by addition of 50 μL receptor solution. The reaction is gently mixed, spun briefly at about 200 rpm and incubated at 4° C. overnight. 100 μL of 50% HAP slurry is prepared and added to the incubated reaction which is then vortexed and incubated on ice for 5 to 10 minutes. The reaction mixture is vortexed twice more to resuspend HAP while incubating reaction. The samples in 96-well format are then washed in wash buffer using The FilterMate™ Universal Harvester plate washer (Packard). The washing process transfers HAP pellet containing ligand-bound expressed receptor to Unifilter-96 GF/B filter plate (Packard). The HAP pellet on the filter plate is incubated with 50 μL of MICROSCINT (Packard) scintillint for 30 minutes before being counted on the TopCount microscintillation counter (Packard). IC50s are calculated using DEX as a reference.
row,Ki [nM],Compound
1,8.8,"C[C@]12Cc3cnn(-c4cccnc4)c3C=C1CC[C@@H]2CC(O)c1ccccc1 (single isomer, unassigned) [Example 1b]"
2,8.4,"COc1cccc(C(O)C[C@H]2CCC3=Cc4c(cnn4-c4cccnc4)C[C@@]32C)c1 (single isomer, unassigned) [Example 4b]"
3,7.3,"COc1ccccc1C(O)C[C@H]1CCC2=Cc3c(cnn3-c3cccnc3)C[C@@]21C (single isomer, unassigned) [Example 2a]"
4,3.5,"C[C@]12Cc3cnn(-c4cccnc4)c3C=C1CC[C@@H]2CC(O)c1ccccc1 (single isomer, unassigned) [Example 1a]"
5,8.5,"COc1ccc(C(O)C[C@H]2CCC3=Cc4c(cnn4-c4cccnc4)C[C@@]32C)cn1 (stereo partly drawn) [Example 3, 1-(6-methoxypyridin-3-yl)-2-[(4αR,5R)-4α-methyl-1-(pyridin-3-yl)-1,4,4α,5,6,7-hexahydrocyclopenta[f]indazol-5-yl] ethanol]"
6,0.9,"COc1ccc(C(O)C[C@H]2CCC3=Cc4c(cnn4-c4cccnc4)C[C@@]32C)cc1 (stereo partly drawn) [Example 5, 1-(4-methoxyphenyl)-2-[(4αR,5R)-4α-methyl-1-(pyridin-3-yl)-1,4,4α,5,6,7-hexahydrocyclopenta[f]indazol-5-yl] ethanol]"
7,346,"C[C@]12Cc3cnn(-c4cccnc4)c3C=C1CC[C@@H]2CC(O)c1ccccn1 (single isomer, unassigned) [Example 6a]"
8,9,"COc1ccccc1C(O)C[C@H]1CCC2=Cc3c(cnn3-c3cccnc3)C[C@@]21C (single isomer, unassigned) [Example 2b]"
9,4.8,"CC(O)(C[C@H]1CCC2=Cc3c(cnn3-c3cccnc3)C[C@@]21C)c1ccccc1 (single isomer, unassigned) [Example 7b]"
10,151,"C[C@]12Cc3cnn(-c4cccnc4)c3C=C1CC[C@@H]2CC(O)c1ccccn1 (single isomer, unassigned) [Example 6b]"
11,3.6,"COc1cccc(C(O)C[C@H]2CCC3=Cc4c(cnn4-c4cccnc4)C[C@@]32C)c1 (single isomer, unassigned) [Example 4a]"
12,2.3,"CC(O)(C[C@H]1CCC2=Cc3c(cnn3-c3cccnc3)C[C@@]21C)c1ccccc1 (single isomer, unassigned) [Example 7a]"
